{"source": "patent US20060293386A1", "about": "“Method for treating cancer” (priority 2005, published 2006)", "key": {"[1]": {"test": "Side effects of GM among 22 cases", "type": "in vivo, patients", "settings": "among 22 cases including pancreatic disease cases", "description": "Side effects of GM used in the present invention already include shock, anaphylaxis, bleeding tendency, granulocytopenia, fall in blood pressure, elevation of GOT and GPT, facial flushing and the like; among 22 cases including pancreatic disease cases, shock: 0 case, anaphylaxis: 3 cases, bleeding tendency: 0 case, slight granulocytopenia: 22 cases, significant fall in blood pressure: 0 case, elevation of GOT and GPT: 2 cases, and withdrawal: 0."}, "[2]": {"tested_on": "HCC (hepato cellular carcinoma)", "test": "Transition of PIVKA-II (tumor marker) values in GM-administered HCC patients", "type": "in vivo", "description": "(§1) AFP (Alpha-fetoprotein) and PIVKA-II (isomer of prothrombin) were used as tumor markers of HCC. […] In general, it is often difficult to determine the shrinkage of cancer lesions by CT scanning or echo imaging immediately after conducting TAE, therefore these markers are used to determine the effects. In Japan, the conventional Alpha-feto Riabeads method has been replaced by the Chemilumi ACS-AFP method since May 2004. The former is a radiation immunoassay whose standard value is ≦20. Meanwhile, the latter is a chemiluminescence immunoassay whose standard value is ≦10.\nHCC patients and AFP-positive (precancerous lesions or regenerating hepatocytes) patients without HCC observed on the images (on CT or echo exam) were given 100-300 mg of gabexate mesilate (hereinafter referred to as “GM”) dissolved in 150-300 ml of physiological saline or of 5% glucose by intravenous drip infusion. GM is originally a drug applicable to chronic pancreatitis, acute pancreatitis, and DIC (disseminated intravascular coagulation), however, informed consent was obtained before the administration. And in allergy cases, the starting dose was 75-100 mg and increased. The nonadministered group is GM-nonadministered HCC cases.\nIn general, AFP and PIVKA-II values are considered to represent cancer viability in hepato cellular carcinoma cases. […]"}, "[3]": {"tested_on": "HCC (hepato cellular carcinoma)", "test": "Transition of AFP (tumor marker) values in GM-administered HCC patients", "type": "in vivo", "settings": "for Average AFP value: GM-administered HCC group with abnormal AFP values; for Effect on AFP values (in words): GM-administered HCC patients, 100-300 mg intravenous drip infusion", "description": "as §1\nHCC patients and AFP-positive (precancerous lesions or regenerating hepatocytes) patients without HCC observed on the images ([…] as “GM”) dissolved in 150-300 ml of physiological saline or of 5% glucose by intravenous drip infusion. GM is originally a drug applicable to chronic pancreatitis, acute pancreatitis, and DIC (disseminated intravascular coagulation), however, informed consent was obtained before the administration. And in allergy cases, the starting dose was 75-100 mg and increased. The nonadministered group is GM-nonadministered HCC cases.\nIn general, AFP and PIVKA-II values are considered to represent cancer viability in hepato cellular carcinoma cases. GM is considered to suppress the viability, since GM suppresses AFP and PIVKA-II values. […]\nAs described above, GM administration after TAE was conducted 10 days after TAE was completed. And GM was considered effective if suppression was observed 4 months after TAE was completed."}}, "note": "“And” between values parts separate entries of the source, which are not always exact repeats. Equal values may be shown once. “Also recorded” adds a separate entry of the source. Read-outs that look alike come from different tables or passages of the source."}
{"smiles": "CCOC(=O)c1ccc(OC(=O)CCCCCN=C(N)N)cc1.CS(=O)(=O)O", "note": "[GM, gabexate mesilate]", "values": [{"measurement": "Side effect: anaphylaxis", "setting": "[1]", "result": 3, "unit": "cases"}, {"measurement": "Side effect: bleeding tendency", "setting": "[1]", "result": 0, "unit": "case"}, {"measurement": "Side effect: elevation of GOT and GPT", "setting": "[1]", "result": 2, "unit": "cases"}, {"measurement": "Side effect: shock", "setting": "[1]", "result": 0, "unit": "case"}, {"measurement": "Side effect: significant fall in blood pressure", "setting": "[1]", "result": 0, "unit": "case"}, {"measurement": "Side effect: slight granulocytopenia", "setting": "[1]", "result": 22, "unit": "cases"}, {"measurement": "Withdrawal", "setting": "[1]", "result": 0}, {"measurement": "Effect on PIVKA-II values (in words)", "setting": "[2]", "result": "elevation of PIVKA-II and AFP values was not observed"}, {"measurement": "Effect on PIVKA-II values (in words)", "setting": "[2]; listed as gabexate mesilate", "result": "dropped, or their elevation was suppressed"}, {"measurement": "Maximum AFP value", "setting": "[3]; 0 M, GM-administered HCC group", "result": 18.9, "unit": "ng/mL"}, {"measurement": "Minimum AFP value", "setting": "[3]; 0 M, GM-administered HCC group", "result": 6.5}, {"measurement": "Average AFP value", "setting": "[3]; 0 M, 7 cases", "result": "11.1 ± 4.8 and 11.1"}, {"measurement": "AFP value", "setting": "[3]; 0 M, individual GM-administered HCC patient, Chemilumi ACS-AFP method", "result": "18.9 and 15.5 and 8.1 and 7.2 and 8.5 and 6.5 and 13.0"}, {"measurement": "Increase and decrease in AFP value, Δ 1 M", "setting": "[3]; 1 M versus 0 M, individual GM-administered HCC patient", "result": "−2.7 and −1.3 and 3.6 and 2.4 and 3.3 and 0.3 and −3.4"}, {"measurement": "Average difference of AFP from the value at 0M", "setting": "[3]; 1 M, GM-administered HCC group", "result": "0.3 and 0.3143"}, {"measurement": "Maximum AFP value", "setting": "[3]; 1 M, GM-administered HCC group", "result": 19.2, "unit": "ng/mL"}, {"measurement": "Minimum AFP value", "setting": "[3]; 1 M, GM-administered HCC group", "result": 5.4}, {"measurement": "Significant difference of AFP versus 0M", "setting": "[3]; 1 M, GM-administered HCC group", "result": "none"}, {"measurement": "Average AFP value", "setting": "[3]; 1 M, 7 cases", "result": "11.4 ± 5.1 and 11.4"}, {"measurement": "AFP value", "setting": "[3]; 1 M, individual GM-administered HCC patient, Chemilumi ACS-AFP method", "result": "19.2 and 12.1 and 5.4 and 5.9 and 8.9 and 16.3"}, {"measurement": "Increase and decrease in AFP value, Δ 2 M", "setting": "[3]; 2 M versus 0 M, individual GM-administered HCC patient", "result": "−1.4 and 3.1 and −0.3 and 2.2 and 1.5 and −6.8"}, {"measurement": "Maximum AFP value", "setting": "[3]; 2 M, GM-administered HCC group", "result": 20.4, "unit": "ng/mL"}, {"measurement": "Minimum AFP value", "setting": "[3]; 2 M, GM-administered HCC group", "result": 5.8}, {"measurement": "Significant difference of AFP versus 0M", "setting": "[3]; 2 M, GM-administered HCC group", "result": "none"}, {"measurement": "Average AFP value", "setting": "[3]; 2 M, 6 cases", "result": "11.3 ± 5.7 and 11.3"}, {"measurement": "AFP value", "setting": "[3]; 2 M, individual GM-administered HCC patient, Chemilumi ACS-AFP method", "result": "20.4 and 8.7 and 5.8 and 11.6 and 6.2 and 15.2"}, {"measurement": "Increase and decrease in AFP value, Δ 3 M", "setting": "[3]; 3 M versus 0 M, individual GM-administered HCC patient", "result": "−3 and −3.2 and 5.1 and 0.2 and 3.7 and 4.1 and −9.4"}, {"measurement": "Maximum AFP value", "setting": "[3]; 3 M, GM-administered HCC group", "result": 23, "unit": "ng/mL"}, {"measurement": "Minimum AFP value", "setting": "[3]; 3 M, GM-administered HCC group", "result": 4.0}, {"measurement": "Significant difference of AFP versus 0M", "setting": "[3]; 3 M, GM-administered HCC group", "result": "none"}, {"measurement": "Average AFP value", "setting": "[3]; 3 M, 7 cases", "result": "10.7 ± 7.2 and 10.7"}, {"measurement": "AFP value", "setting": "[3]; 3 M, individual GM-administered HCC patient, Chemilumi ACS-AFP method", "result": "23.0 and 6.1 and 5.1 and 4.0 and 13.6 and 6.7 and 16.7"}, {"measurement": "AFP value", "setting": "[3]; 3rd case of TABLE 2, 20 mg of GM, when HCC was roughly diagnosed by contrast CT", "result": "8-9"}, {"measurement": "Current AFP value", "setting": "[3]; 4th case of TABLE 2, 200 mg of GM after TAE", "result": "around 7"}, {"measurement": "Highest AFP value reached", "setting": "[3]; 4th case of TABLE 2, GM reduced to 75-100 mg because of allergy, before TAE", "result": "up to 70"}, {"measurement": "Statistical difference of AFP between each month and 0M (in words)", "setting": "[3]; GM-administered HCC patients of TABLE 2", "result": "no significant difference"}, {"measurement": "Effect on AFP values (in words)", "setting": "[3]", "result": "the elevation of AFP values was suppressed; also recorded: elevation of PIVKA-II and AFP values was not observed"}, {"measurement": "Effect on AFP values (in words)", "setting": "[3]; listed as gabexate mesilate", "result": "dropped, or their elevation was suppressed; also recorded: suppressed the elevation of AFP values for a prolonged period"}, {"measurement": "Number of times of effective GM administrations after TAE", "setting": "[3]; cases of TABLE 2, effective if suppression observed 4 months after TAE", "result": 6}, {"measurement": "Current AFP value", "setting": "[3]; first case of TABLE 2, person, GM 200-300 mg with repeated TAE", "result": 9.0}, {"measurement": "Number of times of effective GM administrations, single GM administration", "setting": "[3]; single GM-administered cases including 4 cases with abnormal AFP values of unknown etiology, effective if markers suppressed in one month", "result": 7}]}
